Reference: publication PMC7481428, “Celastrol induces ROS-mediated apoptosis via directly targeting peroxiredoxin-2 in gastric cancer cells” (Theranostics, 2020)

Molecular target: T1, peroxiredoxin-2 (Prdx2) (Homo sapiens, UniProt P32119)
T1 construct: His-tagged recombinant Prdx2 (rhPrdx2)
T1 sequence (P32119 2-198): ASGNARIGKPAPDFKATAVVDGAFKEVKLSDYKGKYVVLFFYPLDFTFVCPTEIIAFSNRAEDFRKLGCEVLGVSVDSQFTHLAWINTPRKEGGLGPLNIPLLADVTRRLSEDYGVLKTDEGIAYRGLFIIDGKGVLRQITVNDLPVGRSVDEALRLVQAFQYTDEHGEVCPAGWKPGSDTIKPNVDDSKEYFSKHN
Experiment: ITC (also SPR KD […]; peroxidase inhibition IC50 […])
Assay type: binding

CC1=C(O)C(=O)C=C2C1=CC=C1[C@@]2(C)CC[C@@]2(C)[C@@H]3C[C@](C)(C(=O)O)CC[C@]3(C)CC[C@]12C [Celastrol]
Kd: 650 nM
